Measurements from patent publication US10285989B2, “Pyrimidinone amide compounds as PDE2 inhibitors” (Merck Sharp & Dohme Corp., priority 2015, dated 2019).
Read-outs that look alike come from different tables or passages of the source.

Columns and labels:
[1] = molecular target: P-glycoprotein (P-gp, rat Mdr1a) (Rattus norvegicus, UniProt Q6PSM0); test: P-gp transport, experimental BA/AB ratio, rat LLC-Mdr1a; type: in vitro ADME; settings: LLC-PK1; rat LLC-Mdrla; 1 μM substrate concentration
Description: (§1) See Doan et al. “Passive permeability and P-glycoprotein-mediated efflux differentiate central nervous system (CNS) and non-CNS marketed drugs”, J. Pharm. Exper. […] Desirable human BA/AB ratio is less than 2.0. […] See, for example, Desai, et al. Integration of in Silico and in Vitro Tools for Scaffold Optimization during Drug Discovery: Predicting P-glycoprotein Efflux” Mol. Pharmac.

P-glycoprotein (P-gp) = P-glycoprotein (P-gp) (Homo sapiens (Human), UniProt P08183); test: P-gp transport, experimental BA/AB ratio, human; type: in vitro ADME; settings: LLC-PK1, 1 μM substrate concentration
Description: as §1

human PDE2A1 = human PDE2A1 (Homo sapiens (Human), UniProt O00408); test: PDE2 IMAP FP inhibition assay, human PDE2A1 (selectivity panel format); type: biochemical
In short: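 Enzyme dosed to give about 20% substrate turnover acts for 60 min at room temperature on 50 nM FAM-cAMP plus 1000 nM cGMP (Tris pH 7.2, MgCl2, DTT, Tween-20 buffer). IMAP binding solution then stops the reaction; after 1 h, polarization is measured from parallel and perpendicular fluorescence.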

Rhesus PDE2A3 = Rhesus PDE2A3 (Macaca mulatta, UniProt B3VTJ2); test: PDE2 fluorescence polarization (IMAP FP) inhibition assay, rhesus PDE2A3; type: biochemical, rhesus macaque
[2] = Lab B, read-out: Human PDE2 Ki (nM) - Lab B
[3] = Lab B, read-out: Rhesus PDE2 Ki (nM) - Lab B
[4] = Lab A, read-out: Human PDE2 Ki (nM) - Lab A
[5] = Lab A, read-out: Rhesus PDE2 Ki (nM) - Lab A

Sequence of Rhesus PDE2A3 (B3VTJ2 1-941): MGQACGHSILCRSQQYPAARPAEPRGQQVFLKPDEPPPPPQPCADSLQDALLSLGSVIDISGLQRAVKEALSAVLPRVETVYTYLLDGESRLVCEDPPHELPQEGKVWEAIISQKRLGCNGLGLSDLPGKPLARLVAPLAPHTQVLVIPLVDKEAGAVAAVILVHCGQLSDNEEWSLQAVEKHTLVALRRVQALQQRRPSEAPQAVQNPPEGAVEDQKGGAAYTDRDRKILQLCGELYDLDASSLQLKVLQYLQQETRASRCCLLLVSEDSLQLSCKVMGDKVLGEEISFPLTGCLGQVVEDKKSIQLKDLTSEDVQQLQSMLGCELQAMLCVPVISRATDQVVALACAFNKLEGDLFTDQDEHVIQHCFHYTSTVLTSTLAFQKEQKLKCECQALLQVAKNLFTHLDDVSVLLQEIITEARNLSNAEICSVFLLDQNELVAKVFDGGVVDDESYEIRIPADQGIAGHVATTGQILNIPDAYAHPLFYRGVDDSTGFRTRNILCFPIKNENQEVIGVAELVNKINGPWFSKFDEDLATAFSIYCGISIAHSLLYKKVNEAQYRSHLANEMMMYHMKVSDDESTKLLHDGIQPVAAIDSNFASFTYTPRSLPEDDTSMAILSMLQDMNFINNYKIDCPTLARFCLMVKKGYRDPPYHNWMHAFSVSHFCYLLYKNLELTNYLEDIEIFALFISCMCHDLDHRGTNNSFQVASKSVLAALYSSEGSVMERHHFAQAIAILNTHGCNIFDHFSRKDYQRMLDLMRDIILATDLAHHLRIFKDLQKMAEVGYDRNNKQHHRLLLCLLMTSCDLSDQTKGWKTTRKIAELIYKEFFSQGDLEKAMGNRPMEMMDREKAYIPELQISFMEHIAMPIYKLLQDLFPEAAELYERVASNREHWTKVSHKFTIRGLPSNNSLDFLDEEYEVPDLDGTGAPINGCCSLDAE
Sequence of P-glycoprotein (P-gp) (P08183 whole entry): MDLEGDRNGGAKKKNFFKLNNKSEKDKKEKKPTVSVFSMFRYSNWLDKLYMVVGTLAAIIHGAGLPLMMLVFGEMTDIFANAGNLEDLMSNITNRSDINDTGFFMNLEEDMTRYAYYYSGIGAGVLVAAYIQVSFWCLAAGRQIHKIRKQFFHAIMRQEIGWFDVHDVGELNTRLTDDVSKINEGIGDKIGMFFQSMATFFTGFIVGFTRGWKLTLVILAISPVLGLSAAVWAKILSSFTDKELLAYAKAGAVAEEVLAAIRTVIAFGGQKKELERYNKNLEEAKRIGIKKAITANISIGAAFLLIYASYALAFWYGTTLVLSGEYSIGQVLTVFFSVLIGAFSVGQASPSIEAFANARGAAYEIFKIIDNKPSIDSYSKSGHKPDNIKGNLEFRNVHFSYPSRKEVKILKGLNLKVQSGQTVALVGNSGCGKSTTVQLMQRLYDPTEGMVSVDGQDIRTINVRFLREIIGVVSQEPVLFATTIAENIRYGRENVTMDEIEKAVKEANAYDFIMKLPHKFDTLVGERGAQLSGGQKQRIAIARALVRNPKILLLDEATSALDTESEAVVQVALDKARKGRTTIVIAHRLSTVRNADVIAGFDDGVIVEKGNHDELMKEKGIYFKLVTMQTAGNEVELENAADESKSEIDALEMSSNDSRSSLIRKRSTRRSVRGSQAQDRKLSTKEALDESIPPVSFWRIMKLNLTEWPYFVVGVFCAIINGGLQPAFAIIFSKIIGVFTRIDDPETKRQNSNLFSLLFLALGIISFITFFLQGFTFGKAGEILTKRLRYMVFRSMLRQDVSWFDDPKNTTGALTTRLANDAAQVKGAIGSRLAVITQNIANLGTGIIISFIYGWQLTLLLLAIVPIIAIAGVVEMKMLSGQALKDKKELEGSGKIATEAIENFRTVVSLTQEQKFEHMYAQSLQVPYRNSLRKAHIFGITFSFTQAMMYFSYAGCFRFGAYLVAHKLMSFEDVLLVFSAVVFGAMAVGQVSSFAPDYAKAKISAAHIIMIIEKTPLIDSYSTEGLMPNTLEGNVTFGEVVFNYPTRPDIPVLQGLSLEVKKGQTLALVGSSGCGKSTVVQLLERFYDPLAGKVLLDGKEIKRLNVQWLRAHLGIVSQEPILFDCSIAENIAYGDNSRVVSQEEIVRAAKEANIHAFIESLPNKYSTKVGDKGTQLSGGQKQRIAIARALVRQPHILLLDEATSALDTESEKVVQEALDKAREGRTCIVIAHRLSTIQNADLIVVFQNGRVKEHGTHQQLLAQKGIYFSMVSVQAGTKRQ
Sequence of P-glycoprotein (P-gp, rat Mdr1a) (Q6PSM0 1-1272): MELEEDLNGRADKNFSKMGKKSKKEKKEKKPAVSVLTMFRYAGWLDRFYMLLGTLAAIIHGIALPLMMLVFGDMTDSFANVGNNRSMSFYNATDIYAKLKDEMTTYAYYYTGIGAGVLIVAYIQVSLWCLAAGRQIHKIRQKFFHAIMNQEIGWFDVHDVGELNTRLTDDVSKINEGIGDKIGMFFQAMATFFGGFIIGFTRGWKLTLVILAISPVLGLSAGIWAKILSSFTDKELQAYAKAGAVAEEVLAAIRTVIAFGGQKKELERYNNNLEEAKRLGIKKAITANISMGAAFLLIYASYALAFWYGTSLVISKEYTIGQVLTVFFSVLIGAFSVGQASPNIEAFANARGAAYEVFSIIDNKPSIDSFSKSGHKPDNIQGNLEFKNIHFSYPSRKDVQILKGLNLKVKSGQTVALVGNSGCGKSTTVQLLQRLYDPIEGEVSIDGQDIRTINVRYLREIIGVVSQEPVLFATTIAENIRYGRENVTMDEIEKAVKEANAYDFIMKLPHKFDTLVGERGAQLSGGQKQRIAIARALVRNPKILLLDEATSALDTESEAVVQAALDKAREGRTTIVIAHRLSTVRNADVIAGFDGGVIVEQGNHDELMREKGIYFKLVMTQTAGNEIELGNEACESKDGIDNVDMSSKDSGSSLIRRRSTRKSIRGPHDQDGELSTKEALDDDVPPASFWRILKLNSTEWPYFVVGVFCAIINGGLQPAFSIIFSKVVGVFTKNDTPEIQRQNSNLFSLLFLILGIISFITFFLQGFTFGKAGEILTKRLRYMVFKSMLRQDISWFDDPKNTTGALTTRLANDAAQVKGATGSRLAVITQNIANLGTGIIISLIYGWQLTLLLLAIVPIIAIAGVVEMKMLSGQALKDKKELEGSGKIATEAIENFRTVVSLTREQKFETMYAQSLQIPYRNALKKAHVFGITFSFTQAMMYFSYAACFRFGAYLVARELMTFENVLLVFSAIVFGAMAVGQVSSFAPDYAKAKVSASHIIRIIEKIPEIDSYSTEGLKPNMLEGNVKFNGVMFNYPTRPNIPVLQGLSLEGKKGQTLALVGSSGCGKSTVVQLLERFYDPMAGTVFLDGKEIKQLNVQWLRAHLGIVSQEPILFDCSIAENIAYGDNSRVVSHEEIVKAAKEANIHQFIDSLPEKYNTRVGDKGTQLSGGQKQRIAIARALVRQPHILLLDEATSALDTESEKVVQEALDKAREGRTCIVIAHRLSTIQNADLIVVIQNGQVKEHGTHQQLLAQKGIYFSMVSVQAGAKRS
Sequence of human PDE2A1 (O00408 other isoform, or with tags, fused parts or gaps): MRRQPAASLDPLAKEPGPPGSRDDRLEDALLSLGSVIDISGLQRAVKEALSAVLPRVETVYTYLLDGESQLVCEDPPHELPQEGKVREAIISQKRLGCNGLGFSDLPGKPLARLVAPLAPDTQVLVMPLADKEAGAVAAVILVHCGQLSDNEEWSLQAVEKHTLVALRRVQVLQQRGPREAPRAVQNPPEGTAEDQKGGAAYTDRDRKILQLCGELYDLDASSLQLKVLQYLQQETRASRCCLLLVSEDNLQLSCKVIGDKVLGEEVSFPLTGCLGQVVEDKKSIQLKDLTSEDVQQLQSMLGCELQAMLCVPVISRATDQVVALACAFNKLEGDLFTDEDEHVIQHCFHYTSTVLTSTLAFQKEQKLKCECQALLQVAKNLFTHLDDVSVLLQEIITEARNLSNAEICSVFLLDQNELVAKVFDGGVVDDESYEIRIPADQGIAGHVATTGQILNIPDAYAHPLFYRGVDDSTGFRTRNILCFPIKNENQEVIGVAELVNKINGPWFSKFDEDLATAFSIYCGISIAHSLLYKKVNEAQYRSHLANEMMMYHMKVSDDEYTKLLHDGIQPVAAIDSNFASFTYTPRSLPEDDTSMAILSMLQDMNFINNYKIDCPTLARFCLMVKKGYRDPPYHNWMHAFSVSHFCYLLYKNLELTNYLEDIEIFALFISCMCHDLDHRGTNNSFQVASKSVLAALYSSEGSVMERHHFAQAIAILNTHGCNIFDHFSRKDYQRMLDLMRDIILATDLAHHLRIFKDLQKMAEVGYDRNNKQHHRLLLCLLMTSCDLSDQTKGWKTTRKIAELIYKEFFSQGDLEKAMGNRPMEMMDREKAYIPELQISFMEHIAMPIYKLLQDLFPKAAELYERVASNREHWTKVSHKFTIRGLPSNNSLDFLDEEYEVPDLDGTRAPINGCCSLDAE

| SMILES | efflux ratio at 1 μM [1] | efflux ratio at 1 μM (P-glycoprotein (P-gp)) | Ki (human PDE2A1; [2]) [nM] | Ki (Rhesus PDE2A3; [3]) [nM] | Ki (human PDE2A1; [4]) [nM] | Ki (Rhesus PDE2A3; [5]) [nM] |
| --- | --- | --- | --- | --- | --- | --- |
| O=C(N[C@@H](c1ccc(C(F)(F)F)cc1)C1CC1)c1cc(=O)[nH]c(N2CC[C@H](F)C2)n1 [Example 167, N-{(R)-cyclopropyl[4-(trifluoromethyl)phenyl]methyl}-2-[(3S)-3-fluoropyrrolidin-1-yl]-6-oxo-1,6-dihydropyrimidine-4-carboxamide] | 27.4 | 1.9 | 2.3 | 1.4 |  |  |
| CC(C)[C@@H](NC(=O)c1cc(=O)[nH]c(N2CC[C@H](F)C2)n1)c1ccc(C(F)(F)F)c(F)c1 [Example 168, 2-[(3S)-3-fluoropyrrolidin-1-yl]-N-{(1R)-1-[3-fluoro-4-(trifluoromethyl)phenyl]-2-methylpropyl}-6-oxo-1,6-dihydropyrimidine-4-carboxamide] | 21.2 | 4.1 | 0.47 | 0.5 |  |  |
| CC(C)(C)[C@@H](NC(=O)c1cc(=O)[nH]c(N2CC[C@H](F)C2)n1)c1ccc(C(F)(F)F)cc1 [Example 169, N-{(1R)-2,2-dimethyl-1-[4-(trifluoromethyl)phenyl]propyl}-2-[(3S)-3-fluoropyrrolidin-1-yl]-6-oxo-1,6-dihydropyrimidine-4-carboxamide] | 9.8 | 2.5 | 0.17 | 0.14 |  |  |

Other lines, results leading:

| efflux ratio at 1 μM [1] | efflux ratio at 1 μM (P-glycoprotein (P-gp)) | Ki (human PDE2A1; [2]) [nM] | Ki (Rhesus PDE2A3; [3]) [nM] | Ki (human PDE2A1; [4]) [nM] | Ki (Rhesus PDE2A3; [5]) [nM] | SMILES |
| --- | --- | --- | --- | --- | --- | --- |
| 1 | 0.4 |  |  | 52 | 58 | CCCOc1nc(C(=O)N[C@H](C)c2ccc(C(F)(F)F)cc2)cc(=O)[nH]1 [Example 178, 6-oxo-2-propoxy-N-{(1R)-1-[4-(trifluoromethyl)phenyl]ethyl}-1,6-dihydropyrimidine-4-carboxamide] |
| 7.9 | 1.2 |  |  | 23 | 29 | CC(C)OCCCOc1nc(C(=O)NC(C)c2ccc(C(F)(F)F)cc2)cc(=O)[nH]1 (stereo not drawn) [Example 183, 2-[3-(1-methylethoxy)propoxy]-6-oxo-N-{1-[4-(trifluoromethyl)phenyl]ethyl}-1,6-dihydro pyrimidine-4-carboxamide] |
| 8.4 | 1 |  |  | 4.4 | ~5.2 | COc1ccc(OCCCOc2nc(C(=O)NC(C)c3ccc(C(F)(F)F)cc3)cc(=O)[nH]2)cc1 (stereo not drawn) [Example 194, 2-[3-(4-methoxyphenoxy)propoxy]-6-oxo-N-{1-[4-(trifluoromethyl)phenyl]ethyl}-1,6-dihydropyrimidine-4-carboxamide] |
